Experimental data from patent US20240190880A1 (THE REGENTS OF THE UNIVERSITY OF MICHIGAN, priority 2021, published 2024).

Biological target: T1, ER (Homo sapiens, UniProt P03372)
T1 construct: host or cells: T47D and MCF7 human breast cancer cells
T1 sequence (P03372 1-595): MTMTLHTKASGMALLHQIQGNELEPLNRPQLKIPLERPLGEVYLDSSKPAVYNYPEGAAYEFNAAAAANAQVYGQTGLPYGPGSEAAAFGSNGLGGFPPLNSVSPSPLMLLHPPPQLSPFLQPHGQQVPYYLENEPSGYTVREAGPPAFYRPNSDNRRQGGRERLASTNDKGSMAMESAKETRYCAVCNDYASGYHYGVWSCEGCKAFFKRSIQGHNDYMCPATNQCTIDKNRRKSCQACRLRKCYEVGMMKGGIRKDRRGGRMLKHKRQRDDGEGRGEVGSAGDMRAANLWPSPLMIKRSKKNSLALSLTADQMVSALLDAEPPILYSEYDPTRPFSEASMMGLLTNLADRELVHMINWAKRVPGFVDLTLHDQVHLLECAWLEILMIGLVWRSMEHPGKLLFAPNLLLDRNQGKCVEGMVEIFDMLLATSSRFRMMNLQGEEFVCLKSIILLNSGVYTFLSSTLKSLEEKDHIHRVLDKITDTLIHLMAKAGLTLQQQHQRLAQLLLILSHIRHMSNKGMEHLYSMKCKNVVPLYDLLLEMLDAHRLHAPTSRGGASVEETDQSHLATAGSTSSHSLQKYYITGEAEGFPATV
Assay: ER degradation activity, in-cell western blot analysis in T47D cells
Assay type: cell-based
Conditions: 16 hours, Table A does not say which cell line (T47D or MCF7), read-out: Potency (DC50)
In short: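 In-cell western, T47D; compounds 16 h, 0.5% DMSO final; anti-rabbit-680/anti-mouse-800 secondaries, 1 h RT, dark; read on CLX imager. ER % vs untreated/DMSO wells (100%).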

Structure (SMILES) | DC50
O=C1CCC(N2Cc3cc4c(cc3C2=O)CN(C(=O)C2CCN(CC3CN(c5ccc([C@@H]6c7ccc(O)cc7CC[C@@H]6c6ccccc6)cc5)C3)CC2)C4)C(=O)N1 (stereo partly drawn) [E 296, 3-(6-(1-((1-(4-((1R,2S)-6-hydroxy-2-phenyl-1,2,3,4-tetrahydronaphthalen-1-yl)phenyl)azetidin-3-yl)methyl)piperidine-4-carbonyl)-1-oxo-3,5,6,7-tetrahydropyrrolo[3,4-f]isoindol-2(1H)-yl)piperidine-2,6-dione] | > 100 nM
C[C@@H]1Cc2c([nH]c3ccccc23)[C@@H](c2ccc(N3CCC(C(=O)N4CCC(N5Cc6cc7c(cc6C5)C(=O)N(C5CCC(=O)NC5=O)C7=O)CC4)CC3)cc2F)N1CC(F)F (stereo partly drawn) [E 302, 6-(1-(1-(4-((1R,3R)-2-(2,2-difluoroethyl)-3-methyl-2,3,4,9-tetrahydro-1H-pyrido[3,4-b]indol-1-yl)-3-fluorophenyl)piperidine-4-carbonyl)piperidin-4-yl)-2-(2,6-dioxopiperidin-3-yl)-6,7-dihydropyrrolo[3,4-f]isoindole-1,3(2H,5H)-dione] | < 10 nM
O=C1CCC(N2C(=O)c3cc4c(cc3C2=O)CN(C2CCC(NC3CCN(c5ccc([C@@H]6c7ccc(O)cc7CC[C@@H]6c6ccccc6)cc5)CC3)CC2)C4)C(=O)N1 (stereo partly drawn) [E 303, 2-(2,6-dioxopiperidin-3-yl)-6-(4-((1-(4-((1R,2S)-6-hydroxy-2-phenyl-1,2,3,4-tetrahydronaphthalen-1-yl)phenyl)piperidin-4-yl)amino)cyclohexyl)-6,7-dihydropyrrolo[3,4-f]isoindole-1,3(2H,5H)-dione] | > 100 nM
C[C@@H]1Cc2c([nH]c3ccccc23)[C@@H](c2c(F)cc(C3CCC(CN4CCC(N5Cc6cc7c(cc6C5)C(=O)N(C5CCC(=O)NC5=O)C7)CC4)CC3)cc2F)N1CC(F)F (stereo partly drawn) [E 308, 3-(6-(1-((4-(4-((1R,3R)-2-(2,2-difluoroethyl)-3-methyl-2,3,4,9-tetrahydro-1H-pyrido[3,4-b]indol-1-yl)-3,5-difluorophenyl)cyclohexyl)methyl)piperidin-4-yl)-1-oxo-3,5,6,7-tetrahydropyrrolo[3,4-f]isoindol-2(1H)-yl)piperidine-2,6-dione] | 10 to 100 nM
C[C@@H]1Cc2c([nH]c3ccccc23)[C@@H](c2c(F)cc(-c3cnc(C(=O)N4CCC(N5Cc6cc7c(cc6C5)C(=O)N(C5CCC(=O)NC5=O)C7=O)CC4)nc3)cc2F)N1CC(F)F (stereo partly drawn) [E 309, 6-(1-(5-(4-((1R,3R)-2-(2,2-difluoroethyl)-3-methyl-2,3,4,9-tetrahydro-1H-pyrido[3,4-b]indol-1-yl)-3,5-difluorophenyl)pyrimidine-2-carbonyl)piperidin-4-yl)-2-(2,6-dioxopiperidin-3-yl)-6,7-dihydropyrrolo[3,4-f]isoindole-1,3(2H,5H)-dione] | 10 to 100 nM
O=C1CCC(N2C(=O)c3cc4c(cc3C2=O)CN(C(=O)[C@H]2CC[C@H](CN3CC(Oc5ccc([C@@H]6c7ccc(O)cc7CC[C@@H]6c6ccccc6)cc5)C3)CC2)C4)C(=O)N1 (stereo partly drawn) [E 310, 2-(2,6-dioxopiperidin-3-yl)-6-((1R,4r)-4-((3-(4-((1R,2S)-6-hydroxy-2-phenyl-1,2,3,4-tetrahydronaphthalen-1-yl)phenoxy)azetidin-1-yl)methyl)cyclohexane-1-carbonyl)-6,7-dihydropyrrolo[3,4-f]isoindole-1,3(2H,5H)-dione] | > 100 nM
O=C1CCC(N2C(=O)c3cc4c(cc3C2=O)CN(Cc2ccc(N3CCN(c5ccc([C@@H]6c7ccc(O)cc7CC[C@@H]6c6ccccc6)cc5)CC3)nc2)C4)C(=O)N1 (stereo partly drawn) [E 311, 2-(2,6-dioxopiperidin-3-yl)-6-((6-(4-(4-((1R,2S)-6-hydroxy-2-phenyl-1,2,3,4-tetrahydronaphthalen-1-yl)phenyl)piperazin-1-yl)pyridin-3-yl)methyl)-6,7-dihydropyrrolo[3,4-f]isoindole-1,3(2H,5H)-dione] | > 100 nM
C[C@@H]1Cc2c([nH]c3ccccc23)[C@@H](c2ccc(C3CCC(C(=O)N4CCC(N5Cc6cc7c(cc6C5)C(=O)N(C5CCC(=O)NC5=O)C7=O)CC4)CC3)cc2F)N1CC(F)F (stereo partly drawn) [E 312, 6-(1-(4-(4-((1R,3R)-2-(2,2-difluoroethyl)-3-methyl-2,3,4,9-tetrahydro-1H-pyrido[3,4-b]indol-1-yl)-3-fluorophenyl)cyclohexane-1-carbonyl)piperidin-4-yl)-2-(2,6-dioxopiperidin-3-yl)-6,7-dihydropyrrolo[3,4-f]isoindole-1,3(2H,5H)-dione] | 10 to 100 nM

Results, then the compound that gave them:

DC50 | Structure (SMILES)
> 100 nM | O=C1CCC(N2C(=O)c3cc4c(cc3C2=O)CN(C2CCC(C(=O)N3CCN(c5ccc([C@@H]6c7ccc(O)cc7CC[C@@H]6c6ccccc6)cc5)CC3)CC2)C4)C(=O)N1 (stereo partly drawn) [E 291, 2-(2,6-dioxopiperidin-3-yl)-6-(4-(4-(4-((1R,2S)-6-hydroxy-2-phenyl-1,2,3,4-tetrahydronaphthalen-1-yl)phenyl)piperazine-1-carbonyl)cyclohexyl)-6,7-dihydropyrrolo[3,4-f]isoindole-1,3(2H,5H)-dione]
> 100 nM | C[C@@H]1Cc2c([nH]c3ccccc23)[C@@H](c2ccc(N3CCC4(CCN(CC(=O)N5Cc6cc7c(cc6C5)C(=O)N(C5CCC(=O)NC5=O)C7=O)CC4)CC3)cn2)N1CC(F)F (stereo partly drawn) [E 292, 6-(2-(9-(6-((1S,3R)-2-(2,2-difluoroethyl)-3-methyl-2,3,4,9-tetrahydro-1H-pyrido[3,4-b]indol-1-yl)pyridin-3-yl)-3,9-diazaspiro[5.5]undecan-3-yl)acetyl)-2-(2,6-dioxopiperidin-3-yl)-6,7-dihydropyrrolo[3,4-f]isoindole-1,3(2H,5H)-dione]
10 to 100 nM | C[C@@H]1Cc2c([nH]c3ccccc23)[C@@H](c2ccc(N3CCC4(CCN(C(=O)CN5Cc6cc7c(cc6C5)C(=O)N(C5CCC(=O)NC5=O)C7=O)CC4)CC3)cc2F)N1CC(F)F (stereo partly drawn) [E 293, 6-(2-(9-(4-((1R,3R)-2-(2,2-difluoroethyl)-3-methyl-2,3,4,9-tetrahydro-1H-pyrido[3,4-b]indol-1-yl)-3-fluorophenyl)-3,9-diazaspiro[5.5]undecan-3-yl)-2-oxoethyl)-2-(2,6-dioxopiperidin-3-yl)-6,7-dihydropyrrolo[3,4-f]isoindole-1,3(2H,5H)-dione]
> 100 nM | O=C1CCC(N2Cc3cc4c(cc3C2=O)CN(C2CCN(CC3CN(c5ccc([C@@H]6c7ccc(O)cc7CC[C@@H]6c6ccccc6)cc5)C3)CC2)C4)C(=O)N1 (stereo partly drawn) [E 294, 3-(6-(1-((1-(4-((1R,2S)-6-hydroxy-2-phenyl-1,2,3,4-tetrahydronaphthalen-1-yl)phenyl)azetidin-3-yl)methyl)piperidin-4-yl)-1-oxo-3,5,6,7-tetrahydropyrrolo[3,4-f]isoindol-2(1H)-yl)piperidine-2,6-dione]
> 100 nM | O=C1CCC(N2C(=O)c3cc4c(cc3C2=O)CN(C(=O)C2CCN(CC3CN(c5ccc([C@@H]6c7ccc(O)cc7CC[C@@H]6c6ccccc6)cc5)C3)CC2)C4)C(=O)N1 (stereo partly drawn) [E 295, 2-(2,6-dioxopiperidin-3-yl)-6-(1-((1-(4-((1R,2S)-6-hydroxy-2-phenyl-1,2,3,4-tetrahydronaphthalen-1-yl)phenyl)azetidin-3-yl)methyl)piperidine-4-carbonyl)-6,7-dihydropyrrolo[3,4-f]isoindole-1,3(2H,5H)-dione]
10 to 100 nM | O=C1CCC(N2C(=O)c3cc4c(cc3C2=O)CN(CC2CCC(N3CCN(c5ccc([C@@H]6c7ccc(O)cc7CC[C@@H]6c6ccccc6)cc5)CC3)CC2)C4)C(=O)N1 (stereo partly drawn) [E 299, 2-(2,6-dioxopiperidin-3-yl)-6-((4-(4-(4-((1R,2S)-6-hydroxy-2-phenyl-1,2,3,4-tetrahydronaphthalen-1-yl)phenyl)piperazin-1-yl)cyclohexyl)methyl)-6,7-dihydropyrrolo[3,4-f]isoindole-1,3(2H,5H)-dione]
10 to 100 nM | C[C@@H]1Cc2cc(O)ccc2[C@@H](c2ccc(N3CCC4(CCN(C(=O)CN5Cc6cc7c(cc6C5)C(=O)N(C5CCC(=O)NC5=O)C7=O)CC4)CC3)cc2)N1CC(F)F (stereo partly drawn) [E 301, 6-(2-(9-(4-((1R,3R)-2-(2,2-difluoroethyl)-6-hydroxy-3-methyl-1,2,3,4-tetrahydroisoquinolin-1-yl)phenyl)-3,9-diazaspiro[5.5]undecan-3-yl)-2-oxoethyl)-2-(2,6-dioxopiperidin-3-yl)-6,7-dihydropyrrolo[3,4-f]isoindole-1,3(2H,5H)-dione]
< 10 nM | C[C@@H]1Cc2c([nH]c3ccccc23)[C@@H](c2c(F)cc(C3CCC(C(=O)N4CCC(N5Cc6cc7c(cc6C5)C(=O)N(C5CCC(=O)NC5=O)C7)CC4)CC3)cc2F)N1CC(F)F (stereo partly drawn) [E 307, 3-(6-(1-(4-(4-((1R,3R)-2-(2,2-difluoroethyl)-3-methyl-2,3,4,9-tetrahydro-1H-pyrido[3,4-b]indol-1-yl)-3,5-difluorophenyl)cyclohexane-1-carbonyl)piperidin-4-yl)-1-oxo-3,5,6,7-tetrahydropyrrolo[3,4-f]isoindol-2(1H)-yl)piperidine-2,6-dione]
